Measured values as given in US7537912B2, “Methods of measuring luminogenic activity with a protected coelenterazine” (Promega Corporation, priority 2001, dated 2009).

What was measured:
[1] = system: CHO cells transfected with pHRL CMV (Renilla luciferase); test: Live cell assay, signal to background ratio; format: cell-based, Chinese hamster; settings: for Change of luminescence from cell samples after Tergitol NP-9 was added: TERGITOL NP-9 final concentration 1%
Text: In these examples, the behavior of luminophores and protected luminophores were examined in situ in a variety of cultured cells. Cells were transiently or stably transfected with a plasmid encoding Renilla luciferase. Luminescence was compared between cells contacted with a coelenterazine (VI or VII) or a protected luminophore (IX, XV, or XVI).
Chinese hamster ovary (CHO) cells were maintained in Ham's F-12 media supplemented with 10% fetal bovine serum (FBS). HeLa and 293 cells were maintained in DMEM media supplemented with 10% fetal calf serum (FCS). All cell lines were grown at 37° C. in the presence of 5% CO2. Cells were transiently transfected with either 15 μg pUC19 or pRL-Control plasmid (PROMEGA CORPORATION, E6271 ) at a concentration of 7.5×10^5 cells per 10 cm plate using Tfx-20 (PROMEGA CORP., E2391) or TransFast™ Transfection Reagent (PROMEGA CORP., E2431). The following day, transfections were pooled and split into 48 wells of a white DYNEX 96-well luminometer plate.
The cells thus prepared were then subjected to a variety of assays. Reaction buffers for these assays were prepared using either DMEM or F12 media with FBS or FCS (10% by volume). Coelenterazine VI, coelenterazine VII or one of protected luminophores IX, XV, or XVI was then added to yield a concentration of 60 μM. These buffers were then used for luminescence measurements in the following assays. Luminescence was measured using an ORION luminometer.
Media was aspirated from the cells after 24 or 48 hours following transfection. The cells were washed with 100 μl per well of 1× phosphate buffered saline. Reaction buffer containing either VI or IX was titrated into complete media by half-logs, and these solutions were added to empty wells and to wells containing transfected cells. Luminescence was measured 5 minutes after media replacement. Immediately following the initial measurement, TERGITOL NP-9 (SIGMA CHEMICALS) was added to a final concentration of 1%. Samples were mixed for approximately 15 seconds, and luminescence was integrated over 1 second per well. The luminescence measured from cell samples increased after Tergitol NP-9 was added to samples containing coelenterazine VI or VII.
Autoluminescence was taken as the luminescence measured for samples containing medium and serum alone. The luminescence divided by the autoluminescence was taken as the signal to background ratio (S/B).

Renilla luciferase = molecular target: T1, Renilla luciferase (Renilla reniformis, UniProt P27652); test: Localization of luminescence, media only wells with and without purified Renilla luciferase; format: biochemical; settings: Table E, no cells, 100 μM substrate
T1 construct: purchased Chemicon Corp
T1 sequence (P27652 1-311): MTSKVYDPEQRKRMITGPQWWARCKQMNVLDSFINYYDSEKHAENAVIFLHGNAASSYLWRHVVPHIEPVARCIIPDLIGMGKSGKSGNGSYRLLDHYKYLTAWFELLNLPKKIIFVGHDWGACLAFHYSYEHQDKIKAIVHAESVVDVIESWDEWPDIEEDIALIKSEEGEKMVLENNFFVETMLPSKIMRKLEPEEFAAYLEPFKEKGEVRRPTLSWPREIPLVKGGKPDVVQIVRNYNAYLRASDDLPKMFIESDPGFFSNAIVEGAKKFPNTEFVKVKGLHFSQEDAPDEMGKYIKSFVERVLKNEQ
Method: (§1) CHO hRL25 cells (which express luciferase) (4.5 mL of (7.5×10^5 cells)/(plate/5×10^9 cells/mL) were resuspended in 5.5 mL media and put into 96 well plates. The next day, the cells were aspirated, washed with 100 μL PBS, and then aspirated again. 100 μL of media (F12) containing no substrate (background) was then added to wells containing no cells. These wells were then read for 1 sec/well with an ORION Luminometer (BERTHHOLD) (Table E; Bkg).
(§2) Similarly, 100 μL portions of media containing 100 μM of either POM-h or coelenterazine-h were placed in wells containing cells or wells alone. These wells were then read for 1 sec/well with an ORION Luminometer (BERTHHOLD) immediately following (coelenterazine) and 10 minutes post-addition (POM-h) (Table E; Subs).
(§3) Thereafter, 0.5 μL of purified Renilla luciferase (3.96×10^−5 M/Reaction (Chemicon) was added to each well. All wells were then read for 1 second/well (Table E; RL).

[2] = system: CHO hRL25 cells (which express luciferase); test: Localization of luminescence, cells expressing luciferase; format: cell-based, Chinese hamster; settings: 100 μM substrate; for RL (RLU): after addition of purified Renilla luciferase; for Subs (RLU): before exogenous luciferase
Method: as §1, §2, §3
(§4) Similarly, 100 μL portions of media (F12) containing 100 μM of either coelenterazine or triacetyl coelenterazine were placed in wells containing cells or wells alone. These wells were then read for 1 sec/well with an ORION Luminometer (BERTHHOLD) immediately following (coelenterazine) and 4 minutes post-addition (triacetyl coelenterazine) (Table F; Subs).
(§5) Thereafter, 0.5 μL of purified Renilla luciferase (3.96×10^−5 M/Reaction (Chemicon) was added to each well. All wells were then read for 1 second/well (Table F; RL).

[3] = system: Untransfected CHO (which do not naturally produce luciferase); test: Localization of luminescence, untransfected cells; format: cell-based, Chinese hamster; settings: Table F, 100 μM substrate; for RL (RLU): after addition of purified Renilla luciferase; for Subs (RLU): before exogenous luciferase
Method: as §4, §5

[4] = Table F, hRL2 cells, read immediately (coelenterazine) or 4 minutes post-addition (triacetyl coelenterazine)

| Compound | Change of luminescence from cell samples after Tergitol NP-9 was added [1] | RL (RLU) (Renilla luciferase; after addition of purified Renilla luciferase) | Subs (RLU) (Renilla luciferase; before luciferase) | RL (RLU) ([2]; Table E, hRL25 cells) | Subs (RLU) ([2]; Table E, hRL25 cells, read immediately (coelenterazine-h) or 10 minutes post-addition (POM-h)) | RL (RLU) [3] | Subs (RLU) [3] | RL (RLU) ([2]; Table F, hRL2 cells) | Subs (RLU) [2, 4] | Ratios - compound/reference Luminesc. ([1]; reference compound VI, CHO cells transfected with pHRL CMV, 5 minutes after media replacement) | Ratios - compound/reference S/N ([1]; reference compound VI, luminescence divided by autoluminescence) | Ratios - compound/reference Autolum. ([1]; reference compound VI, medium and serum alone) |
| --- | --- | --- | --- | --- | --- | --- | --- | --- | --- | --- | --- | --- |
| O=c1c(Cc2ccccc2)nc2c(Cc3ccccc3)[nH]c(-c3ccc(O)cc3)cn1-2 [compound VII, coelenterazine-h, reference compound] | increased | 278467 RLU | 763 RLU | 331381 RLU | 39342 RLU |  |  |  |  |  |  |  |
| coelenterazine [compound VI, reference compound] | increased |  |  |  |  | 11930147 RLU | 6253 RLU | 110008374 RLU | 139842 RLU |  |  |  |
| CC(=O)Oc1ccc(Cc2nc3c(Cc4ccccc4)nc(-c4ccc(OC(C)=O)cc4)cn3c2OC(C)=O)cc1 [compound IX, triacetyl-coelenterazine] | dropped almost to the level of autoluminescence |  |  |  |  | 8910 RLU | 864 RLU | 229111 RLU | 224353 RLU | 1.5 | 9.1 | 0.2 |
